Data reported in paper PMC3653958, “Identification of Functionally Distinct Na-HCO3 Co-Transporters in Colon” (PLoS ONE, 2013).

Molecular target: T1, NBCe1B/C (electrogenic Na-HCO3 cotransporter) (Rattus norvegicus, UniProt Q9JI66)
T1 construct: gene Slc4a4; native transporter in basolateral membrane vesicles of rat proximal colon (amiloride-insensitive component)
T1 sequence (Q9JI66 1-1079): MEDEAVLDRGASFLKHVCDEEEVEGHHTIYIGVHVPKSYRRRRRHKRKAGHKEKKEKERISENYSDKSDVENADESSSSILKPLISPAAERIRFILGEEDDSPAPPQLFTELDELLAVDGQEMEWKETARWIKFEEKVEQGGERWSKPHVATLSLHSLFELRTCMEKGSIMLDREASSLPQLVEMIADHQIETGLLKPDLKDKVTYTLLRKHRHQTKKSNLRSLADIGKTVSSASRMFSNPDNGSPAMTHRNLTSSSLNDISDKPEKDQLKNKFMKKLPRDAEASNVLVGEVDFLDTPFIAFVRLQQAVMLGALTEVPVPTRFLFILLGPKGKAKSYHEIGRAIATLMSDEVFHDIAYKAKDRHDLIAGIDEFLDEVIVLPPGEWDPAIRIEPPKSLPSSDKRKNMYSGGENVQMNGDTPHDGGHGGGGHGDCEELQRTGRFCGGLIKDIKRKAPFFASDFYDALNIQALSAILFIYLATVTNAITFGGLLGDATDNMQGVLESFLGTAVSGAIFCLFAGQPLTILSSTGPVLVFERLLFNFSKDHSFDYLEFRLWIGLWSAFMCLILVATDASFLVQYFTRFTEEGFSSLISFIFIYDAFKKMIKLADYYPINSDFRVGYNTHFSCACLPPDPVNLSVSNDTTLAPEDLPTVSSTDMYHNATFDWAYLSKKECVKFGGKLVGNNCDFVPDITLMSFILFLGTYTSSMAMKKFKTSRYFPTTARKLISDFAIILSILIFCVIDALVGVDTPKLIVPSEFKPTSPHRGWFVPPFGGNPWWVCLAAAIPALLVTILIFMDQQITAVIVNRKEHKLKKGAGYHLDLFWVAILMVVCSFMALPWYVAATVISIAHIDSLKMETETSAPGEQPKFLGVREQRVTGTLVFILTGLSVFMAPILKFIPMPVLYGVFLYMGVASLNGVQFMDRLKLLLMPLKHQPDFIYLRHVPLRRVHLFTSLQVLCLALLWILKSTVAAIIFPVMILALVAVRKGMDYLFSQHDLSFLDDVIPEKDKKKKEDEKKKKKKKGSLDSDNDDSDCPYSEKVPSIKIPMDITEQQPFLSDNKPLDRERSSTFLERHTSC
Experiment: inhibition of proton/HCO3 gradient-driven […] uptake in native membrane vesicles
Type: biochemical

O=S(=O)(O)c1cc(N=C=S)ccc1/C=C/c1ccc(N=C=S)cc1S(=O)(=O)O [DIDS]
Ki: 8.9 ± 1.2 µM
